“Also recorded” adds a separate entry of the source.
Tests used:
[1] = system: mThy1-hSNCA mice (substantia nigra / midbrain); assay: Brain immunostaining / immunohistochemistry in mThy1-hSNCA mice; format: in vivo, mouse; conditions: 3 mg/kg/day s.c.
Description: (§1) C57BL/6 N-Tg (Thy1-SNCA)15Mjff/J (JAX: 017682) breeders (C57Bl/6NJ genetic background) were purchased from Jackson Laboratories. The mice were mated, bred, and genotyped in the animal facility of Case Western Reserve University. All mice were maintained at a 12-hour light/dark cycle (on 6 am, off 6 pm). All randomization and peptide treatments in mThy1-hSNCA mice were prepared by an experimenter not associated with the behavioral and neuropathology analysis. Only male mice were used in the study. mThy1-hSNCA transgenic mice and their age-matched WT littermates were implanted with a 28-day subcutaneous osmotic pump (Alzet, Cupertino CA, Model 2004) containing either TAT control peptide or CS2 peptide, which delivered the peptides at indicated rate (1 or 3 or 10 mg/kg/day). The pump was replaced once every four weeks. All mice were sacrificed at age of 10-month for neuropathology assessment.
For immunofluorescence staining of mouse brain sections, mice were deeply anesthetized and transcardially perfused with 4% paraformaldehyde in PBS. Brain sections were washed in PBS 3 times and subjected for antigen retrieval in 0.01 M sodium citrate buffer with 0.05% TWEEN-20, followed by permeation with 0.2% Triton X-100 in PBS at room temperature for 10 min. Sections were then blocked with 10% normal goat serum in PBS and incubated with primary antibodies overnight at 4 °C and then stained with secondary antibodies. Images of the staining were acquired using Fluoview (FV3000) confocal microscope (Olympus).
Frozen brain sections (20 μm, coronal) were washed in PBS 3 times and subjected for antigen retrieval in 0.01 M sodium citrate buffer with 0.05% TWEEN-20. After washing 3 times in TBS, sections were then incubated in 3%H2O2/w methanol for 30 min at room temperature to quench endogenous peroxidase. After washing in TBS, sections were blocked in 10% normal goat serum with 1XTBST for one hour at room temperature and incubated with anti-pS129-αSyn (ab51253, clone EP1536Y, abcam) or anti- αSyn aggregates (MABN389, clone 5G4, Millipore) antibody in TBST overnight. Secondary antibody and DAB staining were provided by the IHC Select HRP/DAB kit (DAB150, Millipore). Hematoxylin QS (H-3404, Vector laboratory) was used to stain nucleus. The intensity of αSyn was conducted using Fiji ImageJ software. The same image exposure times and threshold settings were used for all sections from all treatment groups. Quantitation was performed blinded to the experimental groups.
Fig. 7 CS2 treatment is protective in mThy1-hSNCA mouse model of PD. (A) Experimental schematic of CS2 treatment in mThy1-hSNCA (Thy1) mouse model of PD: TAT or CS2 peptide was administered (3 mg/kg/day) via subcutaneous osmotic pump (O.P.) in Thy1 mice and their wild-type (WT) littermates starting from age of 4-month till 10-month. […] (D) Representative images of pS129-αSyn staining in substantia nigra of WT and Thy1 mice treated with TAT or CS2 peptide (scale bar = 100 μm). […] (G) Representative images of ClpP and tyrosine […] (TH) staining on the brain coronal sections from TAT or CS2-treated Thy1 mice and their WT littermates (scale bar = 100 μm). […] (H) Representative images of IBA1 and GFAP staining in the midbrain of TAT or CS2 treated Thy1 mice and their WT littermates (SN: substantia nigra) (scale bar = 180 μm).
(B) Representative images of αSyn aggregates staining (5G4) in substantia nigra of TAT or CS2 treated Thy1 mice (scale bar = 40µm).

wild-type littermates = assay: Observed effects on wild-type littermates; format: in vivo, mouse; conditions: 3 mg/kg/day s.c.; WT littermates
Description: as §1
All behavioral analyses were conducted by an experimenter who was blinded to the genotypes and treatment groups. All mice were subjected to a series of behavioral measurements to monitor locomotor activity (open field test), spontaneous spatial working memory (Y-maze test), and motor coordination (Rotarod test).

[2] = system: αSyn oligomerization (VN/VC-αSyn), SH-SY5Y cells; assay: BiFC split-Venus αSyn oligomerization in SH-SY5Y cells; format: cell-based
Description: To construct truncated-αSyn plasmids, pcDNA3.1(-) was digested with BsteII and XbaI, and ΔN-, ΔC- and ΔNAC-αSyn was PCR-amplified using self-designed primers and inserted into the plasmid backbone. Cells were transfected with TransIT-2020 (Mirus Bio, LLC) following the manufacturer’s protocol.
The bimolecular fluorescence was examined 24-hour after transfection (n = 3, one-way ANOVA with Tukey’s post-hoc test, scale bar = 30 μm). (D) Quantification of the concentration (ng/ml) of extracellular αSyn monomer and oligomer, and intracellular αSyn oligomer in Tet-inducible SH-SY5Y cells that were pre-treated with TAT or CS2 peptide 30-minute before adding doxycycline (Dox) to induce αSyn expression. The concentration of αSyn species was determined by ELISA (n = 4, one-way ANOVA with Tukey’s post-hoc test; data are mean ± SEM). (E) Representative images of Mito-SOX staining in SH-SY5Y cells that were pre-treated with TAT or CS2 peptide and transfected with split Venus-αSyn vectors. Mitochondrial ROS production was determined by Mito-SOX staining after 24-hour transfection (n = 4, two-tailed Student’s t test, scale bar = 30 μm).
The bimolecular fluorescence was examined 24-hour after the transfection and quantitated (n = 14 areas/group, one-way ANOVA with Tukey’s post-hoc test, data are mean ± SEM).

[3] = midbrain, mThy1-hSNCA, n = 3 mice/group

CC(C)[C@H](NC(=O)CNC(=O)CNC(=O)CCCCCNC(=O)[C@H](CCCNC(=N)N)NC(=O)[C@H](CCCNC(=N)N)NC(=O)[C@H](CCCNC(=N)N)NC(=O)[C@H](CCC(N)=O)NC(=O)[C@H](CCCNC(=N)N)NC(=O)[C@H](CCCNC(=N)N)NC(=O)[C@H](CCCCN)NC(=O)[C@H](CCCCN)NC(=O)[C@H](CCCNC(=N)N)NC(=O)CNC(=O)[C@@H](N)Cc1ccc(O)cc1)C(=O)N[C@H](C(=O)N[C@H](C(=O)N[C@@H](C)C(=O)O)[C@@H](C)O)C(C)C [CS2, TAT-C6-GGVVTA]
ClpP level in midbrain DA neurons ([1]; TH+ neurons, immunostaining, n = 3 mice/group): restored by CS2 | IBA1 and GFAP in WT mice ([1]; WT mice): no effect in WT mice | GFAP (astrocyte) intensity [1, 3]: significantly attenuated both markers | IBA1 (microglia) intensity [1, 3]: significantly attenuated both markers | pS129-αSyn accumulation in SN ([1]; n = 3 mice/group): reduced by CS2 treatment | αSyn aggregates in SN (5G4) ([1]; n = 3 mice/group): reduced by CS2 treatment | effects on wild-type littermates (wild-type littermates): no observable effects on wild-type littermates | αSyn oligomerization, ClpP-deficient cells ([2]; ClpPsh SH-SY5Y, effect of reducing αSyn oligomerization, n = 14 areas/group): no protective effect; also recorded: not observed in ClpP-deficient cells | BiFC signal / αSyn oligomerization ([2]; SH-SY5Y expressing VN/VC-αSyn, 24-hour after transfection): significantly reduced BiFC signal intensity | IC50 ([2]; SH-SY5Y expressing VN/VC-αSyn, pretreatment, 24-hour after transfection, n = 3, read-out: IC50, BiFC αSyn oligomer formation): ~2500 nM

Source: article PMC12751141, “Disrupting α-Synuclein–ClpP interaction restores mitochondrial function and attenuates neuropathology in Parkinson’s disease models” (Molecular Neurodegeneration, 2025)
